Measurements published in PMC9227781, “Inhibitors of O-Acetylserine Sulfhydrylase with a Cyclopropane-Carboxylic Acid Scaffold Are Effective Colistin Adjuvants in Gram Negative Bacteria” (Pharmaceuticals, 2022).

Tested on: S. Typhimurium DW378
Assay: Target engagement: MIC of 12h and colistin in cysK/cysM-inactive mutant strain
Format: cell-based, Salmonella enterica serovar Typhimurium
Experimental: In this regard, compound 12h has been selected because of its favorable overall properties. It has been tested at a concentration of 32 μg/mL, in order to ensure complete inactivation of both the OASS isoforms. […] The MIC assays of 12h and colistin alone on the DW378 strain have been performed and they have been compared with those obtained on the WT strain. […] But, on the other hand, the MIC value of colistin was […] lower on the mutant strain than that on the WT, a result that overlapped those achieved with the association of colistin and 12h in WT cells.
MIC values were evaluated following CLSI guidelines with some modifications, as referred to in previous work. Twofold dilutions 25.6–0.05 mg/mL of the tested compounds were performed in DMSO in separate 96-well microtiter U-plates (Greiner, Milan, Italy). In a different 96-well microtiter U-plate, for each well of the replicates, 49 µL of broth medium were added. Then, in each well of the plate, one microliter of each compound at variable dilution in DMSO was added. For each test, three independent experiments with three replicates each were performed.
Antimicrobial activity of associations between the different compounds and colistin (Sigma-Aldrich, St. Louis, MO, USA, lot n. 049M-4836 V) was tested with checkerboard assay with minor modifications, as mentioned in the previous work. For each assay, three experiments with three replicates each were assessed. For each compound tested concentration, 96-wells microtiter U-plates were prepared with twofold serial dilutions of colistin in MHB starting from the MIC value (µg/mL) for ten consecutive dilutions in 50 µL of broth. In each well of the same replicate, 1 µL of each compound in DMSO was added at a fixed concentration, 100 times higher than the final desired concentration (3.2; 1.6; 0.8 mg/mL). Subsequently, 49 µL of the bacterial suspension at a concentration of 10^6 CFU/mL, adjusted spectrophotometrically as reported above, was added to each well, reaching the final bacterial concentration of 5 × 10^5 CFU/mL. Growth and sterility controls were performed for each experiment and for each replicate. Finally, the plates were incubated at 37 °C in aerobic atmosphere for 24 h. After incubation, plates were read by unaided eye with a microtiter reading mirror and then the OD of each well of the plates was measured spectrophotometrically at 620 nm. MIC values were calculated as the arithmetic mean ± SD of the unaided eye reading and the inhibition of growth for each tested dilution was calculated from the OD values (mean ± SD).
* This strain is defective for the expression of cysK and cysM genes, encoding for isozymes OASS-A and B. The genotypes of this strain are trpC109, cysK1772, and cysM1770. […]

Q: With `CCOC(=O)C1(Cc2ccc(C)cc2)CC1c1cccc(N2CC(C)OC(C)C2)c1` (stereo not drawn) [Compound 12h, trans-ethyl 2-(3-(2,6-dimethylmorpholino)phenyl)-1-(4-methylbenzyl)cyclopropanecarboxylate] as the molecule, how does the MIC (Salmonella enterica, TYPHIMURIUM, 12 h, read-out: MIC 12h (μg/mL)) read?
A: Its MIC is > 512 µg/mL.

Q: And the “MIC Colistin” value (colistin in combination with 12h at 32 μg/mL, DW378 mutant strain)?
A: Its value is 0.141 ± 0.09 µg/mL.
